Assay results published in article PMC5896380, “Selective imaging of cathepsin L in breast cancer by fluorescent activity-based probes” (Chemical Science, 2018).
Non-standard residues stand in square brackets, D forms with d. *: point of attachment. Phe(3,4-Cl2) = N[C@@H](Cc1ccc(Cl)c(Cl)c1)C(=O)O; Phe(F5) = N[C@@H](Cc1c(F)c(F)c(F)c(F)c1F)C(=O)O; Phe(3-F) = N[C@@H](Cc1cccc(F)c1)C(=O)O; Phe(4-F) = N[C@@H](Cc1ccc(F)cc1)C(=O)O; ACC = NC(=O)Cc1cc(=O)oc2cc(N*)ccc12; hArg = N=C(N)NCCCC[C@H](N)C(=O)O; ClZ = O=C(OCc1ccccc1Cl)*; Orn = NCCC[C@H](N)C(=O)O; Mob = COc1ccc(C*)cc1; Meb = Cc1ccc(C*)cc1; OBn = c1ccc(CO*)cc1; Bn = c1ccc(C*)cc1

Columns and labels:
Assay type in all cases: biochemical
[1] = biological target: T1, cathepsin K (Homo sapiens, UniProt P43235); test: Substrate selectivity screening, rate of hydrolysis, cathepsin K; details: Table S4; substrate 100µM, cathepsin 5nM; pH 5.5, 37 °C; average of at least three screenings
T1 construct: made in house
T1 sequence (P43235 115-329): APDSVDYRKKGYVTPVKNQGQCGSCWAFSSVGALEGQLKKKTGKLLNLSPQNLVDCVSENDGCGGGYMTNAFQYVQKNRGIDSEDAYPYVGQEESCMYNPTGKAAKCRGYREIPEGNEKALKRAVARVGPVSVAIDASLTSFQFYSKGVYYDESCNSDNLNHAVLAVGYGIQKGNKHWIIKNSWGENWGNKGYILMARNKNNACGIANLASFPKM
Method: (§1) All kinetic experiments were performed using fMax (Molecular Devices) and CLARIOStar (BMG LABTECH) spectrofluorimeters operating in kinetic mode using 96-well plates. ACC-labeled substrates were screened using 355 nm and 460 nm wavelengths (excitation and emission, respectively). […] The buffer was prepared at room temperature and the enzyme kinetic studies were performed at 37 °C.
(§2) All potentially selective cathepsin L substrates were tested for their selectivity against a panel of five different cathepsins, containing cathepsins L, V, S, K and […], at concentrations of 2 μM and 100 μM. To obtain reliable results the concentration of each cathepsin was 5 nM. Substrate hydrolysis was carried out for 10 min (for cathepsin L) and for up to 60 min (for other cathepsins). Hydrolysis rates (RFU s^–1) are presented as average values from at least three screenings.

[2] = biological target: T2, cathepsin V (Homo sapiens, UniProt O60911); test: Substrate selectivity screening, rate of hydrolysis, cathepsin V; details: Table S4; substrate 100µM, cathepsin 5nM; pH 5.5, 37 °C; average of at least three screenings
T2 construct: made in house
Method: as §1, §2

[3] = biological target: T3, cathepsin B (Homo sapiens, UniProt P07858); test: Substrate selectivity screening, rate of hydrolysis, cathepsin B; details: Table S4; substrate 100µM, cathepsin 5nM; pH 5.5, 37 °C; average of at least three screenings
T3 construct: made in house
Method: as §1, §2

[4] = biological target: T4, cathepsin L (Homo sapiens, UniProt P07711); test: Substrate selectivity screening, rate of hydrolysis, cathepsin L; details: Table S4; substrate 100µM, cathepsin 5nM; pH 5.5, 37 °C; average of at least three screenings
T4 construct: made in house
Method: as §1, §2

[5] = biological target: T5, cathepsin S (Homo sapiens, UniProt P25774); test: Substrate selectivity screening, rate of hydrolysis, cathepsin S; details: Table S4; substrate 100µM, cathepsin 5nM; pH 5.5, 37 °C; average of at least three screenings
T5 construct: made in house
Method: as §1, §2

[6] = biological target: T1, cathepsin K; test: Kinetic parameters of ACC substrates with cathepsin K; details: for kcat/KM Cath-K: Fig. 5B, pH 5.5, 37 °C, cathepsin K 5–20 nM, triplicate, SD below 15%
Method: as §1
(§3) Classic substrate velocity plots were analyzed according to Michaelis–Menten kinetics and a detailed protocol for the determination of kinetic parameters for ACC-tagged substrates is found elsewhere.[56] […] Experiments were repeated at least three times and results are presented as an average. The SDs were below 15%.

[7] = biological target: T4, cathepsin L; test: Kinetic parameters of ACC substrates with cathepsin L; details: for kcat/KM Cath-L: Fig. 5B, pH 5.5, 37 °C, cathepsin L 0.1–0.5 nM, triplicate, SD below 15%
Method: as §1, §3

[8] = biological target: T3, cathepsin B; test: Kinetic parameters of ACC substrates with cathepsin B; details: for kcat/KM Cath-B: Fig. 5B, pH 5.5, 37 °C, cathepsin B 4–15 nM, triplicate, SD below 15%
Method: as §1, §3

[9] = biological target: T5, cathepsin S; test: Kinetic parameters of ACC substrates with cathepsin S; details: for kcat/KM Cath-S: Fig. 5B, pH 5.5, 37 °C, cathepsin S 5–20 nM, triplicate, SD below 15%
Method: as §1, §3

[10] = biological target: T2, cathepsin V; test: Kinetic parameters of ACC substrates with cathepsin V; details: for kcat/KM Cath-V: Fig. 5B, pH 5.5, 37 °C, cathepsin V 10–20 nM, triplicate, SD below 15%
Method: as §1, §3

[11] = Table S7, four independent experiments, S.D. below 15%

T5 sequence (P25774 115-331): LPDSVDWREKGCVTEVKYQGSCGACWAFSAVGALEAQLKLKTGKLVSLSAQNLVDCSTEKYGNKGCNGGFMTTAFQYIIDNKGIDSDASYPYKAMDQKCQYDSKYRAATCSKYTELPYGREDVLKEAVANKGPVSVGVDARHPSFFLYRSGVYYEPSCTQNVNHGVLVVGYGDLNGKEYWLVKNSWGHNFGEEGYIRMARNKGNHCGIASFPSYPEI
T4 sequence (P07711 114-333): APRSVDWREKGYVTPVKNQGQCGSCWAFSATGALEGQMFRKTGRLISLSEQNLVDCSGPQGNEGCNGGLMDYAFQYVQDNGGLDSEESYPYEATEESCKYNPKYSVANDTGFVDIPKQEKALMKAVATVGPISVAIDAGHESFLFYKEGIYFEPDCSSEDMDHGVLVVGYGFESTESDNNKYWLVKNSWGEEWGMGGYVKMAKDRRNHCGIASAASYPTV
T2 sequence (O60911 114-334): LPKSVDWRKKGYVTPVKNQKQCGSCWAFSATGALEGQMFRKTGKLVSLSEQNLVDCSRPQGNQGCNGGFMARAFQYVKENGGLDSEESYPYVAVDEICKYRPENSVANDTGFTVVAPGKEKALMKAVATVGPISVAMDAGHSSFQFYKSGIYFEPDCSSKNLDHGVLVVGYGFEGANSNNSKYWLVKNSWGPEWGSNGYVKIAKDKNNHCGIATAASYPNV

Substance | kcat/KM Cath-K [6] | kcat/KM Cath-L [7] | kcat/KM Cath-B [8] | kcat/KM Cath-S [9] | kcat/KM Cath-V [10] | other results
Ac-A[Orn][Phe(3,4-Cl2)]R-{ACC} (SMILES CC(=O)N[C@@H](C)C(=O)N[C@@H](CCCN)C(=O)N[C@@H](Cc1ccc(Cl)c(Cl)c1)C(=O)N[C@@H](CCCNC(=N)N)C(=O)Nc1ccc2c(CC(N)=O)cc(=O)oc2c1) |  |  |  |  |  | Relative substrate activity (rate of hydrolysis), cathepsin K [1]: 4.6 RFU/s; Relative substrate activity (rate of hydrolysis), cathepsin V [2]: 346 RFU/s; Relative substrate activity (rate of hydrolysis), cathepsin B [3]: 189 RFU/s; Relative substrate activity (rate of hydrolysis), cathepsin L [4]: 844 RFU/s; Relative substrate activity (rate of hydrolysis), cathepsin S [5]: 3.4 RFU/s
Ac-A[dK]K(Ac)R-{ACC} (SMILES CC(=O)NCCCC[C@H](NC(=O)[C@@H](CCCCN)NC(=O)[C@H](C)NC(C)=O)C(=O)N[C@@H](CCCNC(=N)N)C(=O)Nc1ccc2c(CC(N)=O)cc(=O)oc2c1) |  |  |  |  |  | Relative substrate activity (rate of hydrolysis), cathepsin K [1]: 1.2 RFU/s; Relative substrate activity (rate of hydrolysis), cathepsin V [2]: 0.0 RFU/s; Relative substrate activity (rate of hydrolysis), cathepsin B [3]: 16.9 RFU/s; Relative substrate activity (rate of hydrolysis), cathepsin L [4]: 25.3 RFU/s; Relative substrate activity (rate of hydrolysis), cathepsin S [5]: 0.0 RFU/s
Ac-H[dV][Phe(3-F)]R-{ACC} (SMILES CC(=O)N[C@@H](Cc1c[nH]cn1)C(=O)N[C@@H](C(=O)N[C@@H](Cc1cccc(F)c1)C(=O)N[C@@H](CCCNC(=N)N)C(=O)Nc1ccc2c(CC(N)=O)cc(=O)oc2c1)C(C)C) | 5,700 M^-1s^-1 | 8,432,000 M^-1s^-1 | 6,280 M^-1s^-1 | 814 M⁻¹ s⁻¹ | 12,600 M^-1s^-1 | 
Ac-H[dV][Phe(4-F)]R-{ACC} (SMILES CC(=O)N[C@@H](Cc1c[nH]cn1)C(=O)N[C@@H](C(=O)N[C@@H](Cc1ccc(F)cc1)C(=O)N[C@@H](CCCNC(=N)N)C(=O)Nc1ccc2c(CC(N)=O)cc(=O)oc2c1)C(C)C) | 2,580 M^-1s^-1 | 6,991,000 M^-1s^-1 | 3,100 M^-1s^-1 | 1,800 M^-1s^-1 | 14,550 M^-1s^-1 | 
Ac-H[dV][Phe(F5)]C(Bn)-{ACC} (SMILES CC(=O)N[C@@H](Cc1c[nH]cn1)C(=O)N[C@@H](C(=O)N[C@@H](Cc1c(F)c(F)c(F)c(F)c1F)C(=O)N[C@@H](CSCc1ccccc1)C(=O)Nc1ccc2c(CC(N)=O)cc(=O)oc2c1)C(C)C) | 190 M⁻¹ s⁻¹ | 732,900 M^-1s^-1 | 1,370 M^-1s^-1 | < 10 M⁻¹ s⁻¹ | 1,250 M^-1s^-1 | kcat Cat K [6, 11]: 0.00221 s⁻¹; kcat/KM Cat K [6, 11]: 190 M⁻¹ s⁻¹; Km ([6]; Table S7, four independent experiments, S.D. below 15%, read-out: KM Cat K): 11.5 µM; kcat Cat L [7, 11]: 4.21 s⁻¹; kcat/KM Cat L [7, 11]: 732,900 M-1s-1; Km ([7]; Table S7, four independent experiments, S.D. below 15%, read-out: KM Cat L): 5.67 µM; kcat Cat B [8, 11]: 0.0115 s⁻¹; kcat/KM Cat B [8, 11]: 1,370 M-1s-1; Km ([8]; Table S7, four independent experiments, S.D. below 15%, read-out: KM Cat B): 8.19 µM; kcat/KM Cat S [9, 11]: < 10 M⁻¹ s⁻¹; kcat Cat V [10, 11]: 0.00971 s⁻¹; kcat/KM Cat V [10, 11]: 1,250 M-1s-1; Km ([10]; Table S7, four independent experiments, S.D. below 15%, read-out: KM Cat V): 7.76 µM
Ac-H[dV][Phe(F5)]C(Meb)-{ACC} (SMILES CC(=O)N[C@@H](Cc1c[nH]cn1)C(=O)N[C@@H](C(=O)N[C@@H](Cc1c(F)c(F)c(F)c(F)c1F)C(=O)N[C@@H](CSCc1ccc(C)cc1)C(=O)Nc1ccc2c(CC(N)=O)cc(=O)oc2c1)C(C)C) | < 10 M⁻¹ s⁻¹ | 1,476,000 M^-1s^-1 | 2,290 M^-1s^-1 | < 10 M⁻¹ s⁻¹ | 1,740 M^-1s^-1 | 
Ac-H[dV][Phe(F5)]C(Mob)-{ACC} (SMILES COc1ccc(CSC[C@H](NC(=O)[C@H](Cc2c(F)c(F)c(F)c(F)c2F)NC(=O)[C@H](NC(=O)[C@H](Cc2c[nH]cn2)NC(C)=O)C(C)C)C(=O)Nc2ccc3c(CC(N)=O)cc(=O)oc3c2)cc1) | < 10 M⁻¹ s⁻¹ | 2,135,000 M^-1s^-1 | 3,800 M^-1s^-1 | < 10 M⁻¹ s⁻¹ | 2,070 M^-1s^-1 | 
Ac-H[dV][Phe(F5)]E(OBn)-{ACC} (SMILES CC(=O)N[C@@H](Cc1c[nH]cn1)C(=O)N[C@@H](C(=O)N[C@@H](Cc1c(F)c(F)c(F)c(F)c1F)C(=O)N[C@@H](CCC(=O)OCc1ccccc1)C(=O)Nc1ccc2c(CC(N)=O)cc(=O)oc2c1)C(C)C) | 626 M⁻¹ s⁻¹ | 599,800 M^-1s^-1 | 941 M⁻¹ s⁻¹ | 1,110 M^-1s^-1 | 710 M⁻¹ s⁻¹ | 
Ac-H[dV][Phe(F5)]K(ClZ)-{ACC} (SMILES CC(=O)N[C@@H](Cc1c[nH]cn1)C(=O)N[C@@H](C(=O)N[C@@H](Cc1c(F)c(F)c(F)c(F)c1F)C(=O)N[C@@H](CCCCNC(=O)OCc1ccccc1Cl)C(=O)Nc1ccc2c(CC(N)=O)cc(=O)oc2c1)C(C)C) | 361 M⁻¹ s⁻¹ | 686,700 M^-1s^-1 | 1,320 M^-1s^-1 | < 10 M⁻¹ s⁻¹ | 329 M⁻¹ s⁻¹ | 
Ac-H[dV][Phe(F5)]L-{ACC} (SMILES CC(=O)N[C@@H](Cc1c[nH]cn1)C(=O)N[C@@H](C(=O)N[C@@H](Cc1c(F)c(F)c(F)c(F)c1F)C(=O)N[C@@H](CC(C)C)C(=O)Nc1ccc2c(CC(N)=O)cc(=O)oc2c1)C(C)C) | 646 M⁻¹ s⁻¹ | 135,600 M^-1s^-1 | 684 M⁻¹ s⁻¹ | 912 M⁻¹ s⁻¹ | 325 M⁻¹ s⁻¹ | 
Ac-H[dV][Phe(F5)][hArg]-{ACC} (SMILES CC(=O)N[C@@H](Cc1c[nH]cn1)C(=O)N[C@@H](C(=O)N[C@@H](Cc1c(F)c(F)c(F)c(F)c1F)C(=O)N[C@@H](CCCCNC(=N)N)C(=O)Nc1ccc2c(CC(N)=O)cc(=O)oc2c1)C(C)C) | < 10 M⁻¹ s⁻¹ | 317,900 M^-1s^-1 | 187 M⁻¹ s⁻¹ | < 10 M⁻¹ s⁻¹ | 175 M⁻¹ s⁻¹ | 
Ac-His-DVal-Phe(F5)-Lys-ACC | < 10 M⁻¹ s⁻¹ | 231,000 M^-1s^-1 | < 10 M⁻¹ s⁻¹ | < 10 M⁻¹ s⁻¹ | < 10 M⁻¹ s⁻¹ | 
Ac-His-DVal-Phe(F5)-Nle(OBzl)-ACC | 906 M⁻¹ s⁻¹ | 2,290,000 M^-1s^-1 | 2,500 M^-1s^-1 | 508 M⁻¹ s⁻¹ | 3,820 M^-1s^-1 | 
Ac-R[dV][Phe(F5)]R-{ACC} (SMILES CC(=O)N[C@@H](CCCNC(=N)N)C(=O)N[C@@H](C(=O)N[C@@H](Cc1c(F)c(F)c(F)c(F)c1F)C(=O)N[C@@H](CCCNC(=N)N)C(=O)Nc1ccc2c(CC(N)=O)cc(=O)oc2c1)C(C)C) | < 10 M⁻¹ s⁻¹ | 387,300 M^-1s^-1 | 101 M⁻¹ s⁻¹ | < 10 M⁻¹ s⁻¹ | 333 M⁻¹ s⁻¹ | 
Ac-[hArg][dV][Phe(F5)]R-{ACC} (SMILES CC(=O)N[C@@H](CCCCNC(=N)N)C(=O)N[C@@H](C(=O)N[C@@H](Cc1c(F)c(F)c(F)c(F)c1F)C(=O)N[C@@H](CCCNC(=N)N)C(=O)Nc1ccc2c(CC(N)=O)cc(=O)oc2c1)C(C)C) | 96 M⁻¹ s⁻¹ | 454,800 M^-1s^-1 | 242 M⁻¹ s⁻¹ | < 10 M⁻¹ s⁻¹ | 647 M⁻¹ s⁻¹ | 
